From PubChem BioAssay AID248 (DTP/NCI, 2004)
“And” between values parts separate entries of the source, which are not always exact repeats. Equal entries are not always repeated. Inconclusive results and toxic doses are left out. Rule as the data show it: active = T/C of 150% or more; inactive = T/C below 125%.

Test system: L1210 leukemia ip in BDF1 mice, survival T/C
Assay: NCI In Vivo Anticancer Drug Screen. Data for tumor model L1210 Leukemia (intraperitoneal) in B6D2F1 (BDF1) mice
Conditions: endpoint: mean survival time, higher = longer survival
Summary of the method: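 Antitumor effect is assessed in tumor-bearing animals. Survival in the compound arm is compared with a vehicle-dosed control arm and expressed as their quotient.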

[1] = dose: 12.5 mg/kg/injection, schedule: Q04DX003 (ip), vehicle: saline
[2] = dose: 25.0 mg/kg/injection, schedule: Q04DX003 (ip), vehicle: saline
[3] = dose: 50.0 mg/kg/injection, schedule: Q01DX009 (ip), vehicle: saline with Tween-80
[4] = dose: 100.0 mg/kg/injection, schedule: Q01DX009 (ip), vehicle: saline with Tween-80
[5] = dose: 200.0 mg/kg/injection, schedule: Q01DX009 (ip), vehicle: saline with Tween-80
[6] = dose: 12.5 mg/kg/injection, schedule: Q01DX009 (ip), vehicle: saline
[7] = dose: 100.0 mg/kg/injection, schedule: Q01DX001 (ip), vehicle: saline
[8] = dose: 200.0 mg/kg/injection, schedule: Q01DX001 (ip), vehicle: saline
[9] = dose: 400.0 mg/kg/injection, schedule: Q01DX001 (ip), vehicle: saline
[10] = dose: 100.0 mg/kg/injection, schedule: Q01DX001 (ip), vehicle: carboxymethylcellulose (CMC)
[11] = dose: 200.0 mg/kg/injection, schedule: Q01DX001 (ip), vehicle: carboxymethylcellulose (CMC)
[12] = dose: 400.0 mg/kg/injection, schedule: Q01DX001 (ip), vehicle: carboxymethylcellulose (CMC)
[13] = dose: 100.0 mg/kg/injection, schedule: Q01DX001 (ip), vehicle: other
[14] = dose: 200.0 mg/kg/injection, schedule: Q01DX001 (ip), vehicle: other
[15] = dose: 400.0 mg/kg/injection, schedule: Q01DX001 (ip), vehicle: other
[16] = dose: 100.0 mg/kg/injection, schedule: Q04DX003 (ip), vehicle: saline with Tween-80
[17] = dose: 200.0 mg/kg/injection, schedule: Q04DX003 (ip), vehicle: saline with Tween-80
[18] = dose: 400.0 mg/kg/injection, schedule: Q04DX003 (ip), vehicle: saline with Tween-80
[19] = dose: 100.0 mg/kg/injection, schedule: Q04DX002 (ip), vehicle: saline with Tween-80
[20] = dose: 200.0 mg/kg/injection, schedule: Q04DX002 (ip), vehicle: saline with Tween-80
[21] = dose: 400.0 mg/kg/injection, schedule: Q01DX009 (ip), vehicle: saline with Tween-80

Measured: T/C

CCOCCOCCOC(C)Oc1ccccc1OC (stereo unspecified)
inactive: dose: 100.0 mg/kg/injection, schedule: Q04DX002 (ip), vehicle: saline 111 % of control | dose: 200.0 mg/kg/injection, schedule: Q04DX002 (ip), vehicle: saline 96 % of control | dose: 400.0 mg/kg/injection, schedule: Q04DX002 (ip), vehicle: saline 114 % of control

CC[n+]1ccc(C)c2ccccc21
inactive: dose: 12.5 mg/kg/injection, schedule: Q04DX002 (ip), vehicle: saline 102 % of control and 103 % of control | [1] 103 % of control | dose: 25.0 mg/kg/injection, schedule: Q04DX002 (ip), vehicle: saline 95 % of control and 98 % of control | [2] 100 % of control | dose: 50.0 mg/kg/injection, schedule: Q04DX002 (ip), vehicle: saline 95 % of control and 102 % of control | dose: 50.0 mg/kg/injection, schedule: Q04DX003 (ip), vehicle: saline 105 % of control

CN(C)c1ccc(/C=C2\SC(=S)N(c3ccccc3)C2=O)cc1
inactive: [3] 96 % of control | [4] 103 % of control | [5] 100 % of control

Nc1ccc(C(=O)CCCN2CCCCC2)cc1
inactive: [6] 103 % of control | dose: 25.0 mg/kg/injection, schedule: Q01DX009 (ip), vehicle: saline 97 % of control | dose: 50.0 mg/kg/injection, schedule: Q01DX009 (ip), vehicle: saline 100 % of control

O=C(Nc1ccc(Cl)c(Cl)c1)OCC#CCOC(=O)Nc1ccc(Cl)c(Cl)c1
inactive: dose: 100.0 mg/kg/injection, schedule: Q01DX009 (ip), vehicle: saline 99 % of control | dose: 200.0 mg/kg/injection, schedule: Q01DX009 (ip), vehicle: saline 91 % of control | dose: 400.0 mg/kg/injection, schedule: Q01DX009 (ip), vehicle: saline 88 % of control

CCN(CC)CCOC(=O)c1[nH]cnc1N
inactive: [7] 96 % of control | [8] 104 % of control | [9] 96 % of control

O=C(NO)Nc1cccc(Cl)c1
inactive: [10] 103 % of control | [11] 97 % of control | [12] 100 % of control

Cc1cs[n+](C)c1
inactive: [7] 94 % of control | [8] 97 % of control

COc1nc2ccccc2c2ccccc12
inactive: [13] 105 % of control | [14] 102 % of control | [15] 107 % of control

COc1cc(Br)c(C(C)CC(=O)O)cc1OC (stereo unspecified)
inactive: [16] 103 % of control | [17] 98 % of control | [18] 92 % of control

CN(C)S(=O)(=O)c1ccc(N)cc1
inactive: [13] 91 % of control | [14] 101 % of control | [15] 90 % of control

O=C(O)C(Br)C(Br)C(=O)Nc1ccc(F)cc1 (stereo unspecified)
inactive: [19] 104 % of control | [20] 93 % of control

CN1C(=O)CC(NC(=O)OCc2ccccc2)C1=O (stereo unspecified)
inactive: [16] 95 % of control | [17] 103 % of control | [18] 96 % of control

CSc1cc2c(cc1N)Cc1cc(F)ccc1-2
inactive: [10] 98 % of control | [11] 98 % of control | [12] 95 % of control

O=C(CCCCC(=O)N/N=C\c1ccccc1O)N/N=C\c1ccccc1O
inactive: [16] 87 % of control | [17] 89 % of control | [18] 87 % of control

COc1ccc(C(C)c2ccc(OC)cc2)cc1
inactive: [16] 93 % of control | [17] 95 % of control | [18] 91 % of control

CCCCCCCCCCCSc1ccc2ccccc2c1
inactive: dose: 100.0 mg/kg/injection, schedule: Q01DX001 (ip), vehicle: Klucel (hydroxypropylcellulose) (HPC) 95 % of control | dose: 200.0 mg/kg/injection, schedule: Q01DX001 (ip), vehicle: Klucel (hydroxypropylcellulose) (HPC) 90 % of control

O=C(C(=O)c1ccccc1)c1ccccc1
inactive: dose: 25.0 mg/kg/injection, schedule: Q01DX009 (ip), vehicle: water 102 % of control | dose: 50.0 mg/kg/injection, schedule: Q01DX009 (ip), vehicle: water 96 % of control | dose: 100.0 mg/kg/injection, schedule: Q01DX009 (ip), vehicle: water 102 % of control | [16] 101 % of control | dose: 200.0 mg/kg/injection, schedule: Q01DX009 (ip), vehicle: water 107 % of control | [17] 97 % of control | dose: 400.0 mg/kg/injection, schedule: Q01DX009 (ip), vehicle: water 98 % of control | [18] 101 % of control

CCN(CC)CCOc1ccc(C(=O)/C(=C/c2ccc3c(c2)OCO3)c2ccccc2)cc1
inactive: dose: 100.0 mg/kg/injection, schedule: Q04DX003 (sc), vehicle: olive oil, sesame oil, peanut oil 103 % of control | dose: 200.0 mg/kg/injection, schedule: Q04DX003 (sc), vehicle: olive oil, sesame oil, peanut oil 97 % of control | dose: 400.0 mg/kg/injection, schedule: Q04DX003 (sc), vehicle: olive oil, sesame oil, peanut oil 100 % of control

CC(C)(O)C(C)(O)c1ccc(Cl)cc1 (stereo unspecified)
inactive: dose: 25.0 mg/kg/injection, schedule: Q01DX009 (ip), vehicle: saline with Tween-80 93 % of control | dose: 25.0 mg/kg/injection, schedule: Q04DX003 (ip), vehicle: Klucel (hydroxypropylcellulose) (HPC) 101 % of control | [3] 102 % of control | dose: 50.0 mg/kg/injection, schedule: Q04DX003 (ip), vehicle: Klucel (hydroxypropylcellulose) (HPC) 101 % of control | [4] 98 % of control | dose: 100.0 mg/kg/injection, schedule: Q04DX003 (ip), vehicle: Klucel (hydroxypropylcellulose) (HPC) 101 % of control | [5] 104 % of control | dose: 200.0 mg/kg/injection, schedule: Q04DX003 (ip), vehicle: Klucel (hydroxypropylcellulose) (HPC) 106 % of control | [21] 94 % of control | dose: 400.0 mg/kg/injection, schedule: Q04DX003 (ip), vehicle: Klucel (hydroxypropylcellulose) (HPC) 95 % of control

O=C1NC(c2ccccc2)C(=O)N1CCN(CCCl)CCCl (stereo unspecified)
inactive: dose: 3.12 mg/kg/injection, schedule: Q01DX009 (ip), vehicle: saline 102 % of control | dose: 3.12 mg/kg/injection, schedule: Q04DX003 (ip), vehicle: saline 98 % of control | dose: 6.25 mg/kg/injection, schedule: Q01DX009 (ip), vehicle: saline 97 % of control | dose: 6.25 mg/kg/injection, schedule: Q04DX003 (ip), vehicle: saline 106 % of control | [6] 100 % of control | [1] 103 % of control | [2] 115 % of control

CCOC(=O)N1C(=O)NC(=O)C1c1ccc(OC)cc1 (stereo unspecified)
inactive: dose: 50.0 mg/kg/injection, schedule: Q01DX001 (ip), vehicle: saline 91 % of control | [7] 97 % of control | [8] 100 % of control | [9] 102 % of control

CCOC(=O)CCCCCCCCCCNC(=O)NCc1ccccc1
inactive: [19] 90 % of control | [20] 87 % of control | dose: 400.0 mg/kg/injection, schedule: Q04DX002 (ip), vehicle: saline with Tween-80 97 % of control

O=C(O)c1c[nH]c2c(Cl)cccc2c1=O
inactive: dose: 100.0 mg/kg/injection, schedule: Q04DX002 (ip), vehicle: Klucel (hydroxypropylcellulose) (HPC) 100 % of control | dose: 200.0 mg/kg/injection, schedule: Q04DX002 (ip), vehicle: Klucel (hydroxypropylcellulose) (HPC) 96 % of control | dose: 400.0 mg/kg/injection, schedule: Q04DX002 (ip), vehicle: Klucel (hydroxypropylcellulose) (HPC) 107 % of control

Nc1nnnc2c1ncn2C1CCCC1
inactive: dose: 75.0 mg/kg/injection, schedule: Q01DX001 (ip), vehicle: other 97 % of control

CC(=O)OCC1OC(Oc2ccccc2)C(OC(C)=O)C(OC(C)=O)C1OC(C)=O (stereo unspecified)
inactive: dose: 100.0 mg/kg/injection, schedule: Q01DX001 (ip), vehicle: saline with Tween-80 101 % of control | [4] 101 % of control | dose: 200.0 mg/kg/injection, schedule: Q01DX001 (ip), vehicle: saline with Tween-80 96 % of control | [5] 95 % of control | dose: 400.0 mg/kg/injection, schedule: Q01DX001 (ip), vehicle: saline with Tween-80 101 % of control | [21] 96 % of control
